Consider three compounds from patent publication US20260232827A1, “ANTIBODY-DRUG CONJUGATES TARGETING NAPI2B AND METHODS OF USE” (Zymeworks BC Inc., priority 2023, published 2026).

Like-named read-outs stand apart in the source and are kept apart here.

Test [1] deals with human erythroid progenitors. Nature of the test: Colony-forming unit (CFU) assay, target-independent cytotoxicity. Type of test: cell-based. Particulars: 336 h. The source says:
(§1) The non-specific (target-independent) cytotoxicity of ADCs in human erythroid and myeloid progenitors is of interest as, in the context of off-target toxicities, uptake and trafficking of intact ADCs into normal cells can occur by different mechanisms following administration of ADC in vivo, including target-dependent, for example, NaPi2b-dependent internalization, or target-independent mechanisms, for example, FcγR-dependent internalization or non-specific endocytosis (Mahalingaiah et al., Pharmacol Ther. 2019 August; 200:110-125). Profiling the in vitro target-independent cytotoxicity of ADCs to erythroid and myeloid progenitors may further understanding of their interactions in vivo.
(§2) Briefly, 20,000 human bone marrow-isolated HSC CD34+ were seeded in a semi-solid methylcellulose-based media formulation containing recombinant human interleukin-3 (rhIL-3, 10 ng/mL), rh granulocyte-macrophage-colony-stimulating factor (rhGM-CSF, 10 ng/mL), rh stem cell factor (rhSCF, 50 ng/mL) and Erythropoietin (Epo, 3 U/mL), to induce differentiation into clonogenic progenitors of human erythroid (CFU-erythroid CFU-E, burst-forming unit-erythroid BFU-E), granulocyte-monocyte (CFU-granulocyte-macrophage CFU-GM) and multipotential (CFU-granulocyte-erythroid-monocyte-megakaryocyte CFU-GEMM). […] After treatment, erythroid and myeloid colonies were assessed microscopically and scored. The colonies were divided into the following categories based on size and morphology: CFU-E, BFU-E, CFU-GM and CFU-GEMM. Percent survivability values were calculated based on the number of colonies after treatment over the number of colonies after solvent controls treatment and plotted against test article concentration using GraphPad Prism 9 software (GraphPad Software, La Jolla, CA). IC50 values were calculated based on a non-linear regression log(inhibitor) versus response, variable slope (four parameters) by GraphPad Prism 9.

The subject of test [2] is human myeloid progenitors. Described as above. It counts as cell-based. The conditions noted are these: 336 h.
Source text: as §1, §2

For test [3], the target named is T1, human NaPi2b (Homo sapiens, UniProt O95436).
T1 construct: Full length human NaPi2b; host or cells: HEK293-6e
T1 sequence (O95436 1-690): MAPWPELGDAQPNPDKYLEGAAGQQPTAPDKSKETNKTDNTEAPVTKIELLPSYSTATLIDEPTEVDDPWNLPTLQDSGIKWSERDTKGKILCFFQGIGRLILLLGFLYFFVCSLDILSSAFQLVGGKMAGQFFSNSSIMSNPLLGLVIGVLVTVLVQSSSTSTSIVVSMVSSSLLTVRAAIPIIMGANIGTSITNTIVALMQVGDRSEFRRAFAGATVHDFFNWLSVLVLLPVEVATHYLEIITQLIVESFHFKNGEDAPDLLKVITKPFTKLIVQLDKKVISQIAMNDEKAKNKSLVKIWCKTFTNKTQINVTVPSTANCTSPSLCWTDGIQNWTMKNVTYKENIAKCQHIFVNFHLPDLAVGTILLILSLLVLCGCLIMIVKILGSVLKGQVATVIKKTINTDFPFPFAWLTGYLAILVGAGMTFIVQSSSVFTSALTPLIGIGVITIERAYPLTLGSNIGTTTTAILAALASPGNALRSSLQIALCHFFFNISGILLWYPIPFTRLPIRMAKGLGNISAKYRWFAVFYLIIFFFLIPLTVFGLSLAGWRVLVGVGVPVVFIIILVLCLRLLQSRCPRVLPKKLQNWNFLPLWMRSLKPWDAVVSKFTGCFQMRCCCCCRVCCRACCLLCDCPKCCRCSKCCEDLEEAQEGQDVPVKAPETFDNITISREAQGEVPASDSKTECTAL
Put plainly: Competition binding (epitope binning) by flow cytometry, transfected HEK293-6e cells. The conditions noted are these: unlabeled competitor 100 μg/mL, detection antibody 1 μg/mL. How it is done: Binding was assessed by flow cytometry using HEK293-6e cells as described below.
HEK293-6e cells were transfected for ~24 hours to transiently express human NaPi2b (1 μg of pTT5-NaPi2b per 1 million cells) or transfected with GFP (ATUM, Menlo Park, CA; pD2610-v23, also 1 μg of DNA per 1 million cells). Following transfection, human NaPi2b-expressing HEK296-6e cells and transfected GFP-expressing HEK296-6e cells were mixed at 4:1 ratio. Each well of a V-bottom 96-well plate was seeded with 100,000 cells of the mixture and incubated with 100 μg/mL of unlabeled competitor anti-NaPi2b antibody for an hour on ice. Post incubation, cells were washed and stained with 1 μg/mL of AF647-conjugated anti-NaPi2b detection antibodies for an hour on ice. Following staining and washing, fluorescence was detected by flow cytometry on a BD LSRFortessa™ Cell Analyzer (BD Biosciences, Franklin Lake, NJ) with 10,000 minimum events collected per well. […] Percentage inhibition was calculated using the following formula: […]

The test system of test [4] is Construct 4 (chimeric human NaPi2b, region 341-358). Put plainly: Binding region mapping, flow cytometry on transfected HEK293-6e cells. The conditions noted are these: antibody 20.0 nM, 24 hours at 4° C. The text has this: (§3) NaPi2b constructs containing deletions in the main extracellular loop of human NaPi2b, as well as chimeric NaPi2b/NaPi2c constructs concerning this main loop, were generated.
(§4) As a complementary strategy, two additional constructs were designed in which the relevant region of the main loop was deleted such as to mimic NaPi2c/NaPi2a main extracellular loop (Constructs 6-7 in Table 52.1). Clones were generated at GenScript Biotech (Piscataway, NJ).
(§5) Constructs were expressed in HEK293-6e cells as follows. Cells were maintained under standard culture conditions (37° C./5% CO2) with shaking at 110 rpm for suspension and cultured in FreeStyle™ 293 Expression Medium (Thermo Fisher Scientific, Waltham, MA) supplemented with 1% fetal bovine serum (Thermo Fisher Scientific, Waltham, MA) and 1× Penicillin-Streptomycin (Thermo Fisher Scientific, Waltham, MA). Cells were transfected with clones expressing the constructs listed in Table 52.1, at 1 μg of DNA per 1 million cells, using 293Fectin™ Transfection Reagent (Thermo Fisher Scientific, Waltham, MA) and Opti-MEM™ I Reduced Serum Medium (Thermo Fisher Scientific, Waltham, MA), and incubated for 24 hours under standard culture conditions (37° C./5% CO2/110 rpm). Following transfection, cells were seeded at 50,000 cells/well in conical-bottom 96-well plates and treated with a serial dilution of test antibody for 24 hours at 4° C. to prevent internalization. Cells were treated with final concentrations of all humanized antibodies of 200, 20, or 2 nM. Cells were treated with final concentrations of the reference anti-NaPi2a rabbit antibody of 50, 5, or 0.5 nM. […] Following incubation and washing, fluorescence was detected by flow cytometry on a BD LSRFortessa™ Cell Analyzer (BD Biosciences, Franklin Lake, NJ) with 1,000 minimum events collected per well. […] Background-subtracted AF647 Mean Fluorescence Intensity (MFI) values were calculated by subtracting the average MFI of three technical replicates of unstained (no primary antibody) cells.
In general terms: A flow cytometer gives signals particle by particle.

For test [5], the system named is Construct 2 (chimeric human NaPi2b, region 280-301). The description is as above. The conditions noted are these: 24 hours at 4° C.
Source text: as §3, §4, §5

Test [6] concerns Construct 1 (chimeric human NaPi2b, region 239-259). The description is as above. The conditions noted are these: 24 hours at 4° C.
Source text: as §3, §4, §5

The IC50 is the point on the concentration scale where inhibition reaches its midpoint. Turning to `CC[C@@]1(O)C(=O)OCc2c1cc1n(c2=O)Cc2c-1nc1cc(F)c(C)cc1c2CNC(=O)OCCO` [Compound 139, 2-hydroxyethyl (S)-((4-ethyl-8-fluoro-4-hydroxy-9-methyl-3,14-dioxo-3,4,12,14-tetrahydro-1H-pyrano[3′,4′:6,7]indolizino[1,2-b]quinolin-11-yl)methyl)carbamate], the IC50 in test [1] (14 days incubation, read-out: Human IC50, Erythroid progenitors) was found to be 1.32 nM; in test [1] (14 days, read-out: IC50, erythroid progenitors) it was 1.32 nM; in test [2] (14 days incubation, read-out: Human IC50, Myeloid progenitors), 1.75 nM; in test [2] (14 days, read-out: IC50, myeloid progenitors), 1.75 nM.
Take Palivizumab [v16955 (negative control)]: in test [3], the “% Inhibition vs. irrelevant mAb, labeled detection antibody v16955 (negative control)” value amounted to 0%; the “% Inhibition vs. irrelevant mAb, labeled detection antibody v18992 (MX35)” value amounted to 0%; the “% Inhibition vs. irrelevant mAb, labeled detection antibody v18993 (lifastuzumab)” value is listed as 0%; the “% Inhibition vs. irrelevant mAb, labeled detection antibody v23855” value is given as 0%.
As to lifastuzumab [lifastuzumab (v18993)], the “Background-Subtracted AF647 Mean Fluorescence Intensity” value in test [4] is given as 1,049; in test [5] (antibody 20.0 nM), 1,198; in test [5] (antibody 200.0 nM), 1,232; in test [6] (antibody 2.0 nM) it was 1,232; in test [6] (antibody 20.0 nM), 1,697; in test [6] (antibody 200.0 nM), 1,508.
